Laboratory results: ChEMBL document CHEMBL1909046, “DrugMatrix in vitro pharmacology data”

Columns and labels:
Thromboxane-A synthase = biological target: T1, Thromboxane-A synthase (Homo sapiens, UniProt P24557); test: biochemical; type: tissue-based, Platelet; settings: platelet;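 further: enzyme inhibition assay with PGH2 supplied as substrate; in other assays of this panel Not Active means under 50% inhibition at 10 µM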
T1 sequence (P24557 whole entry): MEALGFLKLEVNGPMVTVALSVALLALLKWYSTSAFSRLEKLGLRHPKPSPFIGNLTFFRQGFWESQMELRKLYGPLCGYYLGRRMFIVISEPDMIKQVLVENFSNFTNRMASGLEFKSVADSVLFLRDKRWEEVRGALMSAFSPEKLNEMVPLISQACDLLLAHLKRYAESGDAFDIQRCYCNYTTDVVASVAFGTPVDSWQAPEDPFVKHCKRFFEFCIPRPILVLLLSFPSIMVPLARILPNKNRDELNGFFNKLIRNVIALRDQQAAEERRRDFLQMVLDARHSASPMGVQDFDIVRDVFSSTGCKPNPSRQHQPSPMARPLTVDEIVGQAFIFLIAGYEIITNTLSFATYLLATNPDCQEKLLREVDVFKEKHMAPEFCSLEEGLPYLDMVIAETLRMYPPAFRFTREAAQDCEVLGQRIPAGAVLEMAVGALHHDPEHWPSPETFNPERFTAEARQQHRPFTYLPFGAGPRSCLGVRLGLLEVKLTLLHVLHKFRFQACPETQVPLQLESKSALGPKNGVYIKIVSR

[1] = DRUGMATRIX: Tumor Necrosis Factor (TNF), Non-Selective radioligand binding (ligand: [125I] TNF-alpha); type: cell membranes, Membrane; settings: u-937; Not Active = under 50% inhibition at 10 µM
Carbonic anhydrase 2 = Carbonic anhydrase 2 (Homo sapiens, UniProt P00918); test: DRUGMATRIX: Carbonic Anhydrase II enzyme inhibition (substrate: 4-Nitrophenyl acetate (4-NPA)); type: tissue-based, Erythrocyte; settings: Not Active = under 50% inhibition at 10 µM
[2] = DRUGMATRIX: Glutamate, NMDA, Agonism radioligand binding (ligand: [3H] CGP-39653); type: cell membranes, Rattus norvegicus, Wistar, Cerebral cortex, Membrane; settings: Not Active = under 50% inhibition at 10 µM
[3] = biological target: T2, Nitric oxide synthase, inducible (Mus musculus, UniProt P29477); parameters: species or system Escherichia coli;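 further: inhibition of iNOS enzyme activity measured with L-arginine as substrate; in other assays of this panel Not Active means under 50% inhibition at 10 µM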
T2 sequence (P29477 whole entry): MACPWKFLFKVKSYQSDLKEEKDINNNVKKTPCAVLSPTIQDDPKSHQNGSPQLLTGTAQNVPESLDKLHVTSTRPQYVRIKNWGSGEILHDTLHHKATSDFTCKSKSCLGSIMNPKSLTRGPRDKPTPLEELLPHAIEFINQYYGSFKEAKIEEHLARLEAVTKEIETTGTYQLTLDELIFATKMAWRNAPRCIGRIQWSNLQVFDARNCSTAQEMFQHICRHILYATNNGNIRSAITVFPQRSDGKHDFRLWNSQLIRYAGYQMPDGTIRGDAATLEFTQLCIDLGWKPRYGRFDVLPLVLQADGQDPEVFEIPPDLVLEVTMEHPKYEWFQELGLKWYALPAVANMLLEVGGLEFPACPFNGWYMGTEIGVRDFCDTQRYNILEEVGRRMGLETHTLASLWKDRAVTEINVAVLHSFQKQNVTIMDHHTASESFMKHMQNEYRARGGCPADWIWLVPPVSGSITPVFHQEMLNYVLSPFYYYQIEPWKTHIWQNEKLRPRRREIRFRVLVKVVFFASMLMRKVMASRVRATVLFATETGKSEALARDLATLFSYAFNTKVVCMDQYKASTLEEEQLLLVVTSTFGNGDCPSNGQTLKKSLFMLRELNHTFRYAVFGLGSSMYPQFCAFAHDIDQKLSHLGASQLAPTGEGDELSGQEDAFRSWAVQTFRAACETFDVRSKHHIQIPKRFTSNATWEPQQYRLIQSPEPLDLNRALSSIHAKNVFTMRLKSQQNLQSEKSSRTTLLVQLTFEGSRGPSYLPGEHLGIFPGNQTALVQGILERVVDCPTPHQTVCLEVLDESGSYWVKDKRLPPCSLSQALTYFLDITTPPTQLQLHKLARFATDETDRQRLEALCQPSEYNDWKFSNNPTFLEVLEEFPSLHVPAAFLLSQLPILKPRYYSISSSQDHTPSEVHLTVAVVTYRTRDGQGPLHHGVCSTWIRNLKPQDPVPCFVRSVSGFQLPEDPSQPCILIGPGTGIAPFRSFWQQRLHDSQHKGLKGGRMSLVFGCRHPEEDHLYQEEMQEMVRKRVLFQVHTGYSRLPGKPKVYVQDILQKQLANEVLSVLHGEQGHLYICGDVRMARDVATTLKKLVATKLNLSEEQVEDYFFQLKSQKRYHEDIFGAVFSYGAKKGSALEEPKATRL

[4] = biological target: Platelet-activating factor receptor (Homo sapiens, UniProt P25105); type: tissue-based; further: in other assays of this panel Not Active means under 50% inhibition at 10 µM
Chain of Platelet-activating factor receptor (P25105 whole entry): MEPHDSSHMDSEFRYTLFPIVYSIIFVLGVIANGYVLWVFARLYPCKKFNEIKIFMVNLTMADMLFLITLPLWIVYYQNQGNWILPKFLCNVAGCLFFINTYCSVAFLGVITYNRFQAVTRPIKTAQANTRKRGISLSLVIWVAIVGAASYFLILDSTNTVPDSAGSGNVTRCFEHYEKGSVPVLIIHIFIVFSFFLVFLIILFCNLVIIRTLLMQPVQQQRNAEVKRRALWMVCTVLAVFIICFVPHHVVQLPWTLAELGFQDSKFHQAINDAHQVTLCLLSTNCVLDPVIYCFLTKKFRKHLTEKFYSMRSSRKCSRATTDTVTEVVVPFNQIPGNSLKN

Caspase-1 = biological target: T3, Caspase-1 (Homo sapiens, UniProt P29466); parameters: species or system Escherichia coli;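 further: Caspase-1 enzyme inhibition assay with a peptide substrate; in other assays of this panel Not Active means under 50% inhibition at 10 µM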
T3 sequence (P29466 whole entry): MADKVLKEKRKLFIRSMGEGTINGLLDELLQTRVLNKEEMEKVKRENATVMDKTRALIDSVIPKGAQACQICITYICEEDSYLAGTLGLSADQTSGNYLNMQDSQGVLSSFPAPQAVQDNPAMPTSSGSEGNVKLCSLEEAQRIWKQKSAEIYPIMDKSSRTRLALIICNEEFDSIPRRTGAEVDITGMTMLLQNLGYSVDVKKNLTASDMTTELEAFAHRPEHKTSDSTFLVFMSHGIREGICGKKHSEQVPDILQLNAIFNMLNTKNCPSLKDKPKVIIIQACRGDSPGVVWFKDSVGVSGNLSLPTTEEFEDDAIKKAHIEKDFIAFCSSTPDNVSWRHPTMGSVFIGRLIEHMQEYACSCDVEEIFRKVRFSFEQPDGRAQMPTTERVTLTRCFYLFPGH

[5] = biological target: Mitogen-activated protein kinase 1 (Homo sapiens, UniProt P28482); test: DRUGMATRIX: Protein Serine/Threonine Kinase, ERK2 enzyme inhibition (substrate: Myelin Basic Protein); parameters: species or system Escherichia coli; settings: Not Active = under 50% inhibition at 10 µM
Chain of Mitogen-activated protein kinase 1 (P28482 whole entry): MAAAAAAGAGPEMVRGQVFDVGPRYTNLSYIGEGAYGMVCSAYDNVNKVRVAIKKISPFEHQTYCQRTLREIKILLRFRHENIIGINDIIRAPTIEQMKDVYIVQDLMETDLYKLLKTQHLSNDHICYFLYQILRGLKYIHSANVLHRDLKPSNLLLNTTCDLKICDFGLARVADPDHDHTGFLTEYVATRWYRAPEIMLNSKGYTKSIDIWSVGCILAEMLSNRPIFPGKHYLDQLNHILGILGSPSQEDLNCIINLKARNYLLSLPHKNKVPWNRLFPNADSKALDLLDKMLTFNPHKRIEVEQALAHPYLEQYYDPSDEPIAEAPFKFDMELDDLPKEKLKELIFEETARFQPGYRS

Cytochrome P450 2C19 = Cytochrome P450 2C19 (Homo sapiens, UniProt P33261); settings: bti-tn-5b1-4; further: in other assays of this panel Not Active means under 50% inhibition at 10 µM
Chain of Cytochrome P450 2C19 (P33261 whole entry): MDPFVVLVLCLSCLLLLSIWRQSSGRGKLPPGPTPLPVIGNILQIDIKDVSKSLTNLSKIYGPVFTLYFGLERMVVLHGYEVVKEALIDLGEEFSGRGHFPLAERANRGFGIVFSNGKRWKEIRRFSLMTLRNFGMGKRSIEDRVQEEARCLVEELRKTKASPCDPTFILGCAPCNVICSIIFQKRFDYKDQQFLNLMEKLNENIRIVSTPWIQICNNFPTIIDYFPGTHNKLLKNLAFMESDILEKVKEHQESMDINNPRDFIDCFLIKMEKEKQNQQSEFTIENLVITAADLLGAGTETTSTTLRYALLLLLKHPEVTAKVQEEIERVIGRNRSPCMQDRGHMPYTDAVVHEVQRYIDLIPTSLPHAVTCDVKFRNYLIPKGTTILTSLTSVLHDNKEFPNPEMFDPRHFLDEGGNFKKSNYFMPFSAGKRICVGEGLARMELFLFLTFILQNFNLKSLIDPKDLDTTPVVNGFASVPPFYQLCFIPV

| SMILES | IC50 (Thromboxane-A synthase) | IC50 [1] | Ki [1] | IC50 (Carbonic anhydrase 2; erythrocyte) | IC50 [2] | Ki [2] | IC50 [3] | IC50 [4] | IC50 (Caspase-1) | IC50 [5] | IC50 (Cytochrome P450 2C19) | Ki (Cytochrome P450 2C19) | IC50 (Carbonic anhydrase 2; read-out: IC50) |
| --- | --- | --- | --- | --- | --- | --- | --- | --- | --- | --- | --- | --- | --- |
| CNC(=C[N+](=O)[O-])NCCSCc1ccc(CN(C)C)o1 [RANITIDINE] | Not Active | Not Active | Not Active | Not Active | Not Active | Not Active | Not Active | Not Active | Not Active | Not Active | Not Active | Not Active |  |
| CO[C@H]1/C=C/O[C@@]2(C)Oc3c(C)c(O)c4c(c3C2=O)C2=NC3(CCN(CC(C)C)CC3)NC2=C(NC(=O)/C(C)=C\C=C\[C@H](C)[C@H](O)[C@@H](C)[C@@H](O)[C@@H](C)[C@H](OC(C)=O)[C@@H]1C)C4=O [RIFABUTIN] | Not Active | Not Active | Not Active | Not Active | Not Active | Not Active | Not Active | Not Active | Not Active | Not Active | Not Active | Not Active |  |
| CC(C)CC(N(C)C)C1(c2ccc(Cl)cc2)CCC1 (stereo not drawn) [SIBUTRAMINE] | Not Active | Not Active | Not Active | Not Active | Not Active | Not Active | Not Active | Not Active | Not Active | Not Active | Not Active | Not Active |  |
| [H]/N=C(/N)N[C@H]1[C@H](O)[C@@H](O)[C@H](O[C@@H]2O[C@@H](C)[C@](O)(C=O)[C@H]2O[C@@H]2O[C@@H](CO)[C@H](O)[C@@H](O)[C@@H]2NC)[C@@H](N/C(N)=N\[H])[C@@H]1O [STREPTOMYCIN] | Not Active | Not Active | Not Active | Not Active | Not Active | Not Active | Not Active | Not Active | Not Active | Not Active | Not Active | Not Active |  |
| COc1cc(NS(=O)(=O)c2ccc(N)cc2)nc(OC)n1 [SULFADIMETHOXINE] | Not Active | Not Active | Not Active | Not Active | Not Active | Not Active | Not Active | Not Active | Not Active | Not Active | Not Active | Not Active |  |
| Cc1cc(C)nc(NS(=O)(=O)c2ccc(N)cc2)n1 [SULFAMETHAZINE] | Not Active | Not Active | Not Active | Not Active | Not Active | Not Active | Not Active | Not Active | Not Active | Not Active | Not Active | Not Active |  |
| C[C@]1(Cn2ccnn2)[C@H](C(=O)O)N2C(=O)C[C@H]2S1(=O)=O [TAZOBACTAM] | Not Active | Not Active | Not Active | Not Active | Not Active | Not Active | Not Active | Not Active | Not Active | Not Active | Not Active | Not Active |  |
| CN1C(C(=O)Nc2ccccn2)=C(O)c2sccc2S1(=O)=O [TENOXICAM] | Not Active | Not Active | Not Active | Not Active | Not Active | Not Active | Not Active | Not Active | Not Active | Not Active | Not Active | Not Active |  |
| CC(C)(C)c1ccc(C(O)CCCN2CCC(C(O)(c3ccccc3)c3ccccc3)CC2)cc1 (stereo not drawn) [TERFENADINE] | Not Active | Not Active | Not Active | Not Active | Not Active | Not Active | Not Active | Not Active | Not Active | Not Active | Not Active | Not Active |  |
| O=C1CCC(N2C(=O)c3ccccc3C2=O)C(=O)N1 (stereo not drawn) [THALIDOMIDE] | Not Active | Not Active | Not Active | Not Active | Not Active | Not Active | Not Active | Not Active | Not Active | Not Active | Not Active | Not Active |  |
| Cc1cccc(Nc2ccncc2S(=O)(=O)NC(=O)NC(C)C)c1 [TORSEMIDE] | Not Active | Not Active | Not Active | Not Active | Not Active | Not Active | Not Active | Not Active | Not Active | Not Active | Not Active | Not Active |  |
| CC(C)C[C@H](NC(=O)[C@@H](O)[C@H](N)Cc1ccccc1)C(=O)O [UBENIMEX] | Not Active | Not Active | Not Active | Not Active | Not Active | Not Active | Not Active | Not Active | Not Active | Not Active | Not Active | Not Active |  |
| CC(=O)CC(c1ccccc1)c1c(O)c2ccccc2oc1=O (stereo not drawn) [WARFARIN] | Not Active | Not Active | Not Active | Not Active | Not Active | Not Active | Not Active | Not Active | Not Active | Not Active | Not Active | Not Active |  |
| [Cl-].[Cl-].[Zn+2] [ZINC CHLORIDE] | Not Active | Not Active | Not Active |  | Not Active | Not Active | Not Active | Not Active | Not Active | Not Active | Not Active | Not Active | 1160 nM |
